Key:
Assay type in all cases: cell-based
TRPM2 channels = molecular target: T1, TRPM2 channels (Homo sapiens, UniProt O94759); assay: TRP Family FLIPR Assay, TRPM2; conditions: HEK293 cells (transient)
T1 construct: expressed in transfected cells; host or cells: HEK293 (transient)
Experimental: (§1) The compound of Example 5 was tested for selectivity against a panel of Human TRP family ion channels in a TRP Family FLIPR Assay as described below. • 1. TRPC3 channels (human TRPC3 variant 1 gene, expressed in HEK293 cells). • 2. TRPC4 channels (human TRPC4 gene, expressed in HEK293 cells). • 3. TRPC5 channels (human TRPC5 gene, expressed in HEK293 cells). • 4. TRPC6 channels (human TRPC6 gene, expressed in HEK293 cells). • 5. TRPM2 channels (human TRPM2 gene, transiently expressed in HEK293 cells). • 6. TRPM3 channels (human TRPM3 gene, transiently expressed in HEK293 cells). • 7. TRPM4 channels (human TRPM4 gene, expressed in CHO cells). • 8. […]
(§2) Data acquisition was performed via the FLIPR Control software supplied with the FLIPR System (MDS-AT) and data was analyzed using Microsoft Excel (Microsoft Corp., Redmond, WA) or GraphPad Prism. […]
(§3) [formula] where Base is the response at low concentrations of test article, Max is the maximum response at high concentrations, xhalf the EC50, or IC50, the concentration of test article producing either half-maximal activation or inhibition, and rate is the Hill coefficient. […] No assumptions about the fit parameters was made; the fit parameters were determined by the algorithm.
(§4) The effect of each test article was evaluated at eight (8) concentrations: 0.003, 0.01, 0.03, 0.1, 0.3, 1, 3 and 10 μM, n≤4 wells/concentration). […]

TRPC4 channels = molecular target: T2, TRPC4 channels (Homo sapiens, UniProt Q9UBN4); assay: TRP Family FLIPR Assay, TRPC4; conditions: HEK293 cells
T2 construct: expressed in transfected cells; host or cells: HEK293
T2 sequence (Q9UBN4 1-977): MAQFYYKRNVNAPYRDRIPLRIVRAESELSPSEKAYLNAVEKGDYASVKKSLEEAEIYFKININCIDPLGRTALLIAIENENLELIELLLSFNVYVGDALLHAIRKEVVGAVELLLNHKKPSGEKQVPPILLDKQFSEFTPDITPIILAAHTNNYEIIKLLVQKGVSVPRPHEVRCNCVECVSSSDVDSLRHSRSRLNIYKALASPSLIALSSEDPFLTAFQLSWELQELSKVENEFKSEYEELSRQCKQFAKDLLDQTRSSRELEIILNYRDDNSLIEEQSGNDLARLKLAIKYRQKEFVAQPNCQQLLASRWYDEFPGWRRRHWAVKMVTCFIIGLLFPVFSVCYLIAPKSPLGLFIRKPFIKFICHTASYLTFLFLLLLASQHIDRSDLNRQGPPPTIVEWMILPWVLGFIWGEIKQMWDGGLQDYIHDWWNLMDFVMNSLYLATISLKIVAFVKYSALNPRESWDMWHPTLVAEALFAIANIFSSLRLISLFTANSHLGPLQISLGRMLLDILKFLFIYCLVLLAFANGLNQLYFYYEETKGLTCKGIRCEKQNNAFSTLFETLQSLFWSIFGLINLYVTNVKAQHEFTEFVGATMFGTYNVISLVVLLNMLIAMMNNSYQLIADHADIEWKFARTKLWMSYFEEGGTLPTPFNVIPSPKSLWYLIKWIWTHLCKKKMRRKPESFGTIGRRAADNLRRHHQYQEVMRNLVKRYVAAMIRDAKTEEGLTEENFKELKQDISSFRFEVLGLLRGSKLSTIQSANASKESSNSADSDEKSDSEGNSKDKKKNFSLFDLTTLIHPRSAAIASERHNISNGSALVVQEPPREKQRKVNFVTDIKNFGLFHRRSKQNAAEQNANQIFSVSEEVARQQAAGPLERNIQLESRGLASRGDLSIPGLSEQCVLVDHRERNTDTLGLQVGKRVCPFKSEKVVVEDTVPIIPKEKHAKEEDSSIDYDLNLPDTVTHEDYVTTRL
Experimental: as §1, §2, §3, §4

Human TRPV4 = Human TRPV4 (Homo sapiens, UniProt Q9HBA0); assay: TRP Family FLIPR Assay, TRPV4; parameters: expressed in transfected cells; host or cells: CHO; conditions: CHO cells
Experimental: as §1, §2, §3, §4

Chain of Human TRPV4 (Q9HBA0 whole entry): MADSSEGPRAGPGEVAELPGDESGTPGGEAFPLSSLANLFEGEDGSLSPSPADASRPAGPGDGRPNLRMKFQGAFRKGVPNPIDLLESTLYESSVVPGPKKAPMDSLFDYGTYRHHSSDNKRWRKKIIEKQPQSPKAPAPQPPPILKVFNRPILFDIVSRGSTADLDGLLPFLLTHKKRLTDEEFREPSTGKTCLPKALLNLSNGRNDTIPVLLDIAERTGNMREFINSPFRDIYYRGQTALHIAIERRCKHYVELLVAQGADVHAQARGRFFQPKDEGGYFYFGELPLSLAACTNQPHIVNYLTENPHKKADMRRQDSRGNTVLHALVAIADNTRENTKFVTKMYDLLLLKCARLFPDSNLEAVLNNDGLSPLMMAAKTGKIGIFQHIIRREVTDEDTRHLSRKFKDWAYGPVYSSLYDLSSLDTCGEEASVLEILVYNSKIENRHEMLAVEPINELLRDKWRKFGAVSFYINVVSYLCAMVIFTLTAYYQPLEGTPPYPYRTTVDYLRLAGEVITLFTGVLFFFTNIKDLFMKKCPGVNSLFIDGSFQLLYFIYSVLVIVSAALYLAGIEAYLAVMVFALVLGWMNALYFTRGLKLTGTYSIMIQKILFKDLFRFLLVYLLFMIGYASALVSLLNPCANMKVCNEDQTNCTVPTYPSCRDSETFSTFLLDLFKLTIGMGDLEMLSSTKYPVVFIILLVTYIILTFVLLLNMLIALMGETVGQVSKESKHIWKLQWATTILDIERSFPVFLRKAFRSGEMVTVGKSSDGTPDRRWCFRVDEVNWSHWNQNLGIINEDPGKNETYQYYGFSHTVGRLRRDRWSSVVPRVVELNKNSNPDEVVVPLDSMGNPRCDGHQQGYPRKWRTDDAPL
T1 sequence (O94759 whole entry): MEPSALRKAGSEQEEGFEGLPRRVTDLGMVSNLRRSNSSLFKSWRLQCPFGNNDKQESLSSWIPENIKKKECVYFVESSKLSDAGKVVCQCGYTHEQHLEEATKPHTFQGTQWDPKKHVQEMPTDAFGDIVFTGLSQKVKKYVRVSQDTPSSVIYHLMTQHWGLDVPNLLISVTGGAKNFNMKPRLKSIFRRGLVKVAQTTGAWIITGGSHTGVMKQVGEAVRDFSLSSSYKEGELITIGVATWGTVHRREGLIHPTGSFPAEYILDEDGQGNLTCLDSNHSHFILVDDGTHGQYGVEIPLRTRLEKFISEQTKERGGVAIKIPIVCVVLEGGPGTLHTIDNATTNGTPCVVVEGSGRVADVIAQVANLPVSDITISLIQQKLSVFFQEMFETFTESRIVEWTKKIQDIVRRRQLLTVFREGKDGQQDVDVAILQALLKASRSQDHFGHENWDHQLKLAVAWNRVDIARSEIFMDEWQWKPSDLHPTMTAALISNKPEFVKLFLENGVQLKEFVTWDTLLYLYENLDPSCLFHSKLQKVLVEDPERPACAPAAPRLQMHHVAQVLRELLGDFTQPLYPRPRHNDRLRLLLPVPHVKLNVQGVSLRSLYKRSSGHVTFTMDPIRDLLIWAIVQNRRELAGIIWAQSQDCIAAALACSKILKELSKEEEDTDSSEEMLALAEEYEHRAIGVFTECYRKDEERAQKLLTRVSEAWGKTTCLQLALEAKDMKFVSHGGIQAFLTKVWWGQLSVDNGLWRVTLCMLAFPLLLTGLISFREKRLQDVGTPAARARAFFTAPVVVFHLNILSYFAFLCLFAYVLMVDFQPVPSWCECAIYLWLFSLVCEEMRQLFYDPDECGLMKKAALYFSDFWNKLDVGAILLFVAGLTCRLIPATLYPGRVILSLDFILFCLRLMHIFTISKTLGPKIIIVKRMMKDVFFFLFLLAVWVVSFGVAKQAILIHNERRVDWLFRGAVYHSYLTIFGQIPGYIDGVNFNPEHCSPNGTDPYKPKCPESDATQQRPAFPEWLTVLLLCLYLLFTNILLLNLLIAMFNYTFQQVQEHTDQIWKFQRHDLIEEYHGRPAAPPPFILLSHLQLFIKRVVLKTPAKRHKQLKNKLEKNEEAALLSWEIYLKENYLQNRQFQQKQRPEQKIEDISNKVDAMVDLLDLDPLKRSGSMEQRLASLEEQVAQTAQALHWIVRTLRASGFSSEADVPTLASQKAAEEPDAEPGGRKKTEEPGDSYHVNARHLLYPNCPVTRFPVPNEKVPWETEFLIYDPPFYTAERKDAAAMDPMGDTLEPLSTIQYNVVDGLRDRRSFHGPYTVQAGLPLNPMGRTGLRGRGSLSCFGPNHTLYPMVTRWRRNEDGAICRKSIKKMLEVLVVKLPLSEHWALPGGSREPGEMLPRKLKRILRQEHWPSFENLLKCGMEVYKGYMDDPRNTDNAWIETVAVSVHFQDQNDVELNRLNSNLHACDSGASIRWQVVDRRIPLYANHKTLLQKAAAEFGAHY

Work on CC(C)(O)c1cnc(N2C[C@@]3(CC[C@@H](F)[C@](C)(Cn4cnc5ccc(C#N)cc54)C3)OC2=O)cn1 (single isomer, unassigned) [Example 5] yielded an EC50 (TRPM2 channels; agonist mode, vs EMAX of H2O2 333 μM, read-out: EC50 hTRPM2) greater than 10 µM, an IC50 (TRPM2 channels; antagonist mode, activated with 300 μM H2O2, 0.003-10 μM, read-out: IC50 hTRPM2) greater than 10 µM and an EC50 (TRPC4 channels; agonist mode, vs EMAX of (−)-Englerin A 30 μM, read-out: EC50 hTRPC4) greater than 10 µM. It also gave an IC50 (TRPC4 channels; antagonist mode, activated with 0.5 μM (−)-Englerin A, 0.003-10 μM, read-out: IC50 hTRPC4) greater than 1 µM, an EC50 (Human TRPV4; agonist mode, vs EMAX of GSK1016790A 3 μM, read-out: EC50 hTRPV4) greater than 10 µM and an IC50 (Human TRPV4; antagonist mode, activated with GSK1016790A 0.3 μM, 0.003-10 μM, read-out: IC50 hTRPV4) of 0.014 µM.

Source: US12391683B2, “Therapeutic compounds and methods” (Actio Biosciences, Inc., priority 2022, dated 2025)
